Measurements reported in patent US9034887B2, “Dihydroorotate dehydrogenase as antifungal drug target and quinazolinone-based inhibitors thereof” (F2G Limited, priority 2008, dated 2015).
≈ marks a conversion by molar mass, not a printed value.

Assays:
[1] = biological target: T1, Recombinant DHODH from C. albicans (Candida albicans, UniProt Q874I4); test: DHODH inhibition screen (DCIP reduction, 600 nm), C. albicans enzyme; type: biochemical
T1 construct: His-tag; NusA (Nus-tag) fusion of vector pET43.1 (own knowledge of the vector) (N); made in house; host or cells: E. coli BL21 DE3
T1 sequence (Q874I4 57-444): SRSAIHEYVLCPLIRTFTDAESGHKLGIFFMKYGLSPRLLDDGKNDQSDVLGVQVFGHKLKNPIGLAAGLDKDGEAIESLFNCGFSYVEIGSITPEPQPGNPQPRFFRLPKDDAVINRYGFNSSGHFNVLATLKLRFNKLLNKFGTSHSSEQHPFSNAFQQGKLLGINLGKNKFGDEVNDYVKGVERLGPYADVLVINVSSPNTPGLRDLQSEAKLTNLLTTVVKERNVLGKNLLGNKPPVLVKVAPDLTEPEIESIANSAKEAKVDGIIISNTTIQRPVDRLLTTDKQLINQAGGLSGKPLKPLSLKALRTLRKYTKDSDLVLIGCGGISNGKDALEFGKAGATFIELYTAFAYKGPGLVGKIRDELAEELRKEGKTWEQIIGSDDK
Description: (§1) 1. The following buffer and stock solution were prepared:
(§2) Coenzyme Q2 (Sigma) was dissolved in DMSO to give a concentration of 10 mg/ml. […] The stock solution was made with 127.36 μl DHO, 127.36 μl DCIP and 318.4 μl Coenzyme Q2, made up to 80 ml with Buffer A. Final concentrations in assay wells were; DHO, 500 μM; Coenzyme Q, 50 μM; DCIP, 100 μM.
(§3) 2. […] Duplicate sets of plates were used such that one set received enzyme while a control set received no enzyme.
(§4) 3. […] Then 20 μl of DHODH solution was added to all the +enzyme plates and 20 μl of Buffer A was added to all the control −enzyme plates.
(§5) 4. 20 μl of DHO/Coenzyme Q2/DCIP solution was added to all the wells, after which plates were incubated at room temperature for […] and then read on a Tecan Safire spectrophotometer at 600 nm.
(§6) Recombinant DHODH from human or C. albicans was assayed in the same way. It is necessary to adjust the enzyme concentration and reaction time to take into account variations in activity of enzyme batches, thus the incubation time was 20 minutes for the C. albicans enzyme and 34 minutes for the human enzyme.

Aspergillus flavus [2] = test: MIC in RPMI medium, A. flavus; type: cell-based; details: 24-48 hrs at 35° C., >80% growth inhibition, read-out: MIC grade, A. flavus
Description: (§7) Between 1 and 5 mgs of compound were accurately weighed out into a sterile Eppendorf tube. The compound was dissolved in DMSO to give a solution containing 5 mg/mL. Tubes were stored at −20° C. until required.
(§8) On the day of testing thawed solutions were vortex mixed to ensure homogeneity. 30 μL of solution was removed and added to 570 μL of sterile water in a separate sterile Eppendorf. The thoroughly mixed solution was used to prepare a series of doubling dilutions in water, in a deep well plate. Thirteen replicate plates were prepared using a Minitrak by aspirating 20 μL from each well into eleven clear polystyrene 96 well plates.
(§9) Assays were also performed in RPMI medium. To perform MIC tests in this medium, dilutions of compounds are prepared in microtitre plates as described above. Fungal strains to be tested are grown and harvested in an identical manner to that described above, and each organism suspension was diluted in RPMI medium, containing 2% glucose and 0.135 M MOPS buffer (pH 7.0) to 0.5-2×10^4 cfu/mL, rather than in YAG medium. 80 μL of an organism suspension was added to each well of the plate containing drug dilutions.
(§10) All plates were incubated for 24-48 hrs at 35° C. Growth was assessed by monitoring the optical density at 485 nm for each well. […] The following organisms were tested: Aspergillus flavus, Aspergillus fumigatus AF293 and AF210, Aspergillus niger and Aspergillus terreus AT4 and AT49.

A. fumigatus 210 = test: MIC in YAG medium, A. fumigatus 210; type: cell-based; details: Aspergillus fumigatus, 24 hrs at 35° C., >70% growth inhibition, read-out: MIC grade, A. fumigatus 210
Description: as §7, §8
(§11) Spores of Aspergillus spp. (Aspergillus fumigatus [two strains], Aspergillus terreus [two strains], Aspergillus niger and Aspergillus flavus) were harvested from cultures grown on Sabarauds agar for 5 days, and resuspended in PBS/Tween 80 to approx 1×10^7 cfu/mL. Each organism suspension was diluted in YAG medium (1% glucose, 1% ammonium chloride and 0.5% yeast extract) to 0.5-2×10^4 cfu/mL. 80 μL of an organism suspension was added to each well of the plate containing drug dilutions.
(§12) All plates were incubated for 24 hrs at 35° C. Growth was assessed by monitoring the optical density at 485 nm for each well. The MIC of a compound is the lowest drug concentration that inhibits growth of an organism by >70% compared with a drug free control. MICs are recorded as mg/L. In cases where the MIC of an organism is […] the MIC is repeated using a concentration range of 0.5-0.0005 mg/L.

A. terreus 49 = test: MIC in YAG medium, A. terreus 49; type: cell-based; details: Aspergillus terreus, 24 hrs at 35° C., >70% growth inhibition, read-out: MIC grade, A. terreus 49
Description: as §7, §8, §11, §12

Aspergillus fumigatus = test: MIC in YAG medium, A. fumigatus; type: cell-based; details: 24 hrs at 35° C., >70% growth inhibition, read-out: MIC grade, A. fumigatus
Description: as §7, §8, §11, §12

[3] = test system: Aspergillus fumigatus AF210; test: MIC in RPMI medium, A. fumigatus 210; type: cell-based; details: 24-48 hrs at 35° C., >80% growth inhibition, read-out: MIC grade, A. fumigatus 210
Description: as §7, §8, §9, §10

[4] = biological target: Recombinant A. fumigatus DHODH (Aspergillus fumigatus, UniProt Q4X169); test: DHODH inhibition screen (DCIP reduction, 600 nm), A. fumigatus enzyme; type: biochemical
Description: as §1
Buffer A: 62.5 mM TrisHCl (pH8.0), 150 mM NaCl, 10% v/v glycerol
DHO/Coenzyme Q2/DCIP solution: 19.848 mg dihydroorotate (DHO; Sigma) was dissolved in 160 μl DMSO. Coenzyme Q2 (Sigma) was dissolved in DMSO to give a concentration of 10 mg/ml. 7.236 mg 2,6-dichloroindophenol (DCIP; Sigma) was dissolved in 160 μl DMSO. The stock solution was made with 127.36 μl DHO, 127.36 μl DCIP and 318.4 μl Coenzyme Q2, made up to 80 ml with Buffer A. Final concentrations in assay wells were; DHO, 500 μM; Coenzyme Q, 50 μM; DCIP, 100 μM.
2. Compounds were aliquotted into 384-well microtitre plates at a range of dilutions to give final concentrations in the assay of […]. Duplicate sets of plates were used such that one set received enzyme while a control set received no enzyme. Since compounds are frequently dissolved in DMSO or a DMSO/water mixture, assays were set up to give a final concentration of 1% (v/v) DMSO in wells.
3. Recombinant A. fumigatus DHODH was suspended in Buffer A to give a concentration of 1435.8 ng protein in 20 μl. Then 20 μl of DHODH solution was added to all the +enzyme plates and 20 μl of Buffer A was added to all the control −enzyme plates.
as §5
as §6, with “enzyme. Compounds are screened against a fungal and human enzyme to identify compounds which are selective for the fungal enzyme.” for “enzyme.”

[5] = biological target: T2, Recombinant DHODH from human (Homo sapiens, UniProt Q02127); test: DHODH inhibition screen (DCIP reduction, 600 nm), human enzyme; type: biochemical; details: Table 3, read-out: IC50 values for Compound Examples 1 to 15 identified from screens, Human
T2 construct: His-tag; NusA (Nus-tag) fusion of vector pET43.1 (own knowledge of the vector) (N); made in house; host or cells: E. coli BL21 DE3
Description: as §1, §2, §3, §4, §5, §6

[6] = test system: Aspergillus fumigatus AF293; test: MIC in RPMI medium, A. fumigatus; type: cell-based; details: 24-48 hrs at 35° C., >80% growth inhibition, read-out: MIC grade, A. fumigatus
Description: as §7, §8, §9, §10

Aspergillus terreus AT4 = test: MIC in RPMI medium, A. terreus; type: cell-based; details: 24-48 hrs at 35° C., >80% growth inhibition, read-out: MIC grade, A. terreus
Description: as §7, §8, §9, §10

Aspergillus flavus [7] = test: MIC in YAG medium, A. flavus; type: cell-based; details: 24 hrs at 35° C., >70% growth inhibition, read-out: MIC grade, A. flavus
Description: as §7, §8, §11, §12

Aspergillus niger [8] = test: MIC in YAG medium, A. niger; type: cell-based; details: 24 hrs at 35° C., >70% growth inhibition, read-out: MIC grade, A. niger
Description: as §7, §8, §11, §12

Aspergillus terreus = test: MIC in YAG medium, A. terreus; type: cell-based; details: 24 hrs at 35° C., >70% growth inhibition, read-out: MIC grade, A. terreus
Description: as §7, §8, §11, §12

Aspergillus terreus AT49 = test: MIC in RPMI medium, A. terreus 49; type: cell-based; details: 24-48 hrs at 35° C., >80% growth inhibition, read-out: MIC grade, A. terreus 49
Description: as §7, §8, §9, §10

Aspergillus niger [9] = test: MIC in RPMI medium, A. niger; type: cell-based; details: 24-48 hrs at 35° C., >80% growth inhibition, read-out: MIC grade, A. niger
Description: as §7, §8, §9, §10

T2 sequence (Q02127 31-395 limits assumed): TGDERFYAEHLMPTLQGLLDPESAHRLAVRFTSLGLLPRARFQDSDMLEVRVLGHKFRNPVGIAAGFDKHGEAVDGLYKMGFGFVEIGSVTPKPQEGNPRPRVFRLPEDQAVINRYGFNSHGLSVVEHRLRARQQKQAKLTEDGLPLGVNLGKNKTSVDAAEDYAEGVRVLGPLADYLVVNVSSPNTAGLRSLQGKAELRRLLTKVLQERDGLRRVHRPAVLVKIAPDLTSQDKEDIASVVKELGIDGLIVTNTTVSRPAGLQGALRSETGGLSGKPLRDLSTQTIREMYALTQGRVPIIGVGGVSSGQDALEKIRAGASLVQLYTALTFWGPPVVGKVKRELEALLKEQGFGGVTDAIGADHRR
Sequence of Recombinant A. fumigatus DHODH (Q4X169 entry or part of it): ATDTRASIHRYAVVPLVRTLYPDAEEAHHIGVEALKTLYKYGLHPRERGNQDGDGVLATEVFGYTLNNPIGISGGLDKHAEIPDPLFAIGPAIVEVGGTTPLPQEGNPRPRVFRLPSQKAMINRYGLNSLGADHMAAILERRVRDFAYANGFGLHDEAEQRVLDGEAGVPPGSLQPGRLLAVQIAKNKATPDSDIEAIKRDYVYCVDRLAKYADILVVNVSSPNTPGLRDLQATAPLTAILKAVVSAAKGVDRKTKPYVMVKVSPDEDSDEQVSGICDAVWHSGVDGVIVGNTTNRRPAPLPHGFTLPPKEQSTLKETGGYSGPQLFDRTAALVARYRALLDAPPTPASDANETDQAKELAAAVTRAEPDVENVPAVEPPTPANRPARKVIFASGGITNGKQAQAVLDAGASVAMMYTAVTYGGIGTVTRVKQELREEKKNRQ

| SMILES | IC50 [1] | MIC (Aspergillus flavus [2]) | MIC (A. fumigatus 210) | MIC (A. terreus 49) | MIC (Aspergillus fumigatus) | MIC [3] | IC50 [4] | IC50 [5] | MIC [6] | MIC (Aspergillus terreus AT4) | MIC (Aspergillus flavus [7]) | MIC (Aspergillus niger [8]) | MIC (Aspergillus terreus) | MIC (Aspergillus terreus AT49) | MIC (Aspergillus niger [9]) |
| --- | --- | --- | --- | --- | --- | --- | --- | --- | --- | --- | --- | --- | --- | --- | --- |
| Cc1c(-c2ccc(-c3ccccc3F)cc2)nc2ccc(F)cc2c1C(=O)O [Brequinar, brequinar] | 143 µM | – | – | – | – | – | – | – | – | – | – | – | – | – | – |
| COc1ccc2nc(SC(C)C)n(-c3ccccc3OC)c(=O)c2c1 [Compound Example 10, 2-Isopropylsulfanyl-6-methoxy-3-(2-methoxy-phenyl)-3H-quinazolin-4-one] | – | > 10 µg/mL | 1 to 10 µg/mL (≈ 2.81 to 28.1 µM) | < 1 µg/mL | 1 to 10 µg/mL (≈ 2.81 to 28.1 µM) | > 10 µg/mL | 19.6 µM | 50.2 µM | > 10 µg/mL | > 10 µg/mL | > 10 µg/mL | < 1 µg/mL | 1 to 10 µg/mL (≈ 2.81 to 28.1 µM) | > 10 µg/mL | 1 to 10 µg/mL (≈ 2.81 to 28.1 µM) |
| CC(C)Sc1nc2ccccc2c(=O)n1-c1ccccc1N(C)C [Compound Example 11, 3-(2-Dimethylamino-phenyl)-2-isopropylsulfanyl-3H-quinazolin-4-one] | – | > 10 µg/mL | 1 to 10 µg/mL (≈ 2.95 to 29.5 µM) | 1 to 10 µg/mL (≈ 2.95 to 29.5 µM) | 1 to 10 µg/mL (≈ 2.95 to 29.5 µM) | > 10 µg/mL | 21.2 µM | 118 µM | 1 to 10 µg/mL (≈ 2.95 to 29.5 µM) | > 10 µg/mL | > 10 µg/mL | 1 to 10 µg/mL (≈ 2.95 to 29.5 µM) | 1 to 10 µg/mL (≈ 2.95 to 29.5 µM) | > 10 µg/mL | 1 to 10 µg/mL (≈ 2.95 to 29.5 µM) |
| CCSc1nc2cccc(OC)c2c(=O)n1-c1ccccc1OC [Compound Example 12, 2-Ethylsulfanyl-5-methoxy-3-(2-methoxy-phenyl)-3H-quinazolin-4-one] | – | > 10 µg/mL | < 1 µg/mL | < 1 µg/mL | < 1 µg/mL | 1 to 10 µg/mL (≈ 2.92 to 29.2 µM) | 26.9 µM | 117 µM | 1 to 10 µg/mL (≈ 2.92 to 29.2 µM) | 1 to 10 µg/mL (≈ 2.92 to 29.2 µM) | 1 to 10 µg/mL (≈ 2.92 to 29.2 µM) | < 1 µg/mL | 1 to 10 µg/mL (≈ 2.92 to 29.2 µM) | 1 to 10 µg/mL (≈ 2.92 to 29.2 µM) | < 1 µg/mL |
| CCSc1nc2ccccc2c(=O)n1-c1ccccc1CC [Compound Example 13, 3-(2-Ethyl-phenyl)-2-ethylsulfanyl-3H-quinazolin-4-one] | – | > 10 µg/mL | 1 to 10 µg/mL (≈ 3.22 to 32.2 µM) | 1 to 10 µg/mL (≈ 3.22 to 32.2 µM) | 1 to 10 µg/mL (≈ 3.22 to 32.2 µM) | > 10 µg/mL | 36.2 µM | 86.1 µM | 1 to 10 µg/mL (≈ 3.22 to 32.2 µM) | > 10 µg/mL | > 10 µg/mL | < 1 µg/mL | 1 to 10 µg/mL (≈ 3.22 to 32.2 µM) | > 10 µg/mL | 1 to 10 µg/mL (≈ 3.22 to 32.2 µM) |
| CCSc1nc2cccc(C)c2c(=O)n1-c1ccccc1OC [Compound Example 14, 2-Ethylsulfanyl-3-(2-methoxy-phenyl)-5-methyl-3H-quinazolin-4-one] | – | > 10 µg/mL | < 1 µg/mL | < 1 µg/mL | < 1 µg/mL | 1 to 10 µg/mL (≈ 3.06 to 30.6 µM) | 43.7 µM | 32.1 µM | 1 to 10 µg/mL (≈ 3.06 to 30.6 µM) | > 10 µg/mL | 1 to 10 µg/mL (≈ 3.06 to 30.6 µM) | < 1 µg/mL | < 1 µg/mL | 1 to 10 µg/mL (≈ 3.06 to 30.6 µM) | < 1 µg/mL |
| CCSc1nc2ccccc2c(=O)n1-c1ccccc1C(C)C [Compound Example 15, 2-Ethylsulfanyl-3-(2-isopropyl-phenyl)-3H-quinazolin-4-one] | – | > 10 µg/mL | < 1 µg/mL | < 1 µg/mL | < 1 µg/mL | 1 to 10 µg/mL (≈ 3.08 to 30.8 µM) | 46.1 µM | 23.2 µM | < 1 µg/mL | > 10 µg/mL | > 10 µg/mL | < 1 µg/mL | 1 to 10 µg/mL (≈ 3.08 to 30.8 µM) | > 10 µg/mL | < 1 µg/mL |
